In patent US6992079B2, “Substituted 11-phenyl-dibenzazepine compounds useful for the treatment or prevention of diseases characterized by abnormal cell proliferation” (President Fellows of Harvard College, priority 1997, dated 2006):
Where two headings read alike, the source gives them in different places.

Legend:
Format in all cases: cell-based
MMRU = assay: SRB antiproliferative assay; conditions: Homo sapiens, MMRU, 5% FCS/3 days
Text: The cells were passaged using Trypsin (Gibco).

A498 = assay: In-Vitro Testing SRB panel: Renal Cancer; conditions: A498, 48 h
MALM-3M = assay: In-Vitro Testing SRB panel: Melanoma; conditions: 48 h
NCI-H23 = conditions: NCI-H23, 48 h
UACC-257 = assay: In-Vitro Testing SRB panel: Melanoma; conditions: UACC-257, 48 h
M14 = assay: In-Vitro Testing SRB panel: Melanoma; conditions: M14, 48 h
RPMI-8226 = assay: In-Vitro Testing SRB panel: Leukemia; conditions: RPMI-8226, 48 h
SK-MEL-2B = assay: In-Vitro Testing SRB panel: Melanoma; conditions: 48 h
SK-MEL-2 = assay: In-Vitro Testing SRB panel: Melanoma; conditions: SK-MEL-2, 48 h
[1] = Homo sapiens, read-out: LC50 (the source's name)

## O=C(c1ccc([N+](=O)[O-])cc1)N1Cc2ccccc2C(c2ccccc2Cl)c2ccccc21 (centres unmarked) [Compound 28, N-(4′-Nitrobenzoyl)-11-(2′-chlorophenyl)-5,6-dihydro-11H-dibenz[b,e]azepine]
MMRU
  IC50: < 1.25 µM
A498
  TGI: >1.00E−04 Molar
A498; log10 conc −4.0 Molar
  Percent Growth: 15%
A498; log10 conc −5.0 Molar
  Percent Growth: 57%
A498; log10 conc −6.0 Molar
  Percent Growth: 81%
A498; log10 conc −7.0 Molar
  Percent Growth: 93%
A498; log10 conc −8.0 Molar
  Percent Growth: 97%
A498; Homo sapiens
  GI50: 14.4 µM
A498; [1]
  CC50: > 100 µM
MALM-3M; Homo sapiens
  GI50: 49.6 µM
MALM-3M; Homo sapiens, MALM-3M, read-out: LC50 (the source's name)
  CC50: > 100 µM
MALM-3M; MALM-3M
  TGI: >1.00E−04 Molar
MALM-3M; MALM-3M, log10 conc −4.0 Molar
  Percent Growth: 39%
MALM-3M; MALM-3M, log10 conc −5.0 Molar
  Percent Growth: 76%
MALM-3M; MALM-3M, log10 conc −6.0 Molar
  Percent Growth: 79%
MALM-3M; MALM-3M, log10 conc −7.0 Molar
  Percent Growth: 85%
MALM-3M; MALM-3M, log10 conc −8.0 Molar
  Percent Growth: 92%
NCI-H23; Homo sapiens
  GI50: 1.61 µM
NCI-H23; [1]
  CC50: > 100 µM
NCI-H23
  TGI: >1.00E−04 Molar
NCI-H23; log10 conc −4.0 Molar
  Percent Growth: 41%
NCI-H23; log10 conc −5.0 Molar
  Percent Growth: 43%
NCI-H23; log10 conc −6.0 Molar
  Percent Growth: 52%
NCI-H23; log10 conc −7.0 Molar
  Percent Growth: 93%
NCI-H23; log10 conc −8.0 Molar
  Percent Growth: 100%
UACC-257; Homo sapiens
  GI50: 0.441 µM
UACC-257; [1]
  CC50: > 100 µM
UACC-257
  TGI: >1.00E−04 Molar
UACC-257; log10 conc −4.0 Molar
  Percent Growth: 6%
UACC-257; log10 conc −5.0 Molar
  Percent Growth: 9%
UACC-257; log10 conc −6.0 Molar
  Percent Growth: 35%
UACC-257; log10 conc −7.0 Molar
  Percent Growth: 78%
UACC-257; log10 conc −8.0 Molar
  Percent Growth: 81%
M14; Homo sapiens
  GI50: 0.941 µM
M14; [1]
  CC50: > 100 µM
M14
  TGI: 2.19E−05 Molar
M14; log10 conc −4.0 Molar
  Percent Growth: −32%
M14; log10 conc −5.0 Molar
  Percent Growth: 16%
M14; log10 conc −6.0 Molar
  Percent Growth: 49%
M14; log10 conc −7.0 Molar
  Percent Growth: 85%
M14; log10 conc −8.0 Molar
  Percent Growth: 94%
RPMI-8226; Homo sapiens
  GI50: 0.522 µM
RPMI-8226; [1]
  CC50: > 100 µM
RPMI-8226
  TGI: >1.00E−04 Molar
RPMI-8226; log10 conc −4.0 Molar
  Percent Growth: 12%
RPMI-8226; log10 conc −5.0 Molar
  Percent Growth: 36%
RPMI-8226; log10 conc −6.0 Molar
  Percent Growth: 46%
RPMI-8226; log10 conc −7.0 Molar
  Percent Growth: 61%
RPMI-8226; log10 conc −8.0 Molar
  Percent Growth: 74%
SK-MEL-2B; Homo sapiens
  GI50: > 100 µM
SK-MEL-2B; Homo sapiens, SK-MEL-2B, read-out: LC50 (the source's name)
  CC50: > 100 µM
SK-MEL-2B; SK-MEL-2B
  TGI: >1.00E−04 Molar
SK-MEL-2B; SK-MEL-2B, log10 conc −4.0 Molar
  Percent Growth: 50%
SK-MEL-2B; SK-MEL-2B, log10 conc −5.0 Molar
  Percent Growth: 56%
SK-MEL-2B; SK-MEL-2B, log10 conc −6.0 Molar
  Percent Growth: 72%
SK-MEL-2B; SK-MEL-2B, log10 conc −7.0 Molar
  Percent Growth: 97%
SK-MEL-2B; SK-MEL-2B, log10 conc −8.0 Molar
  Percent Growth: 39%
SK-MEL-2; Homo sapiens
  GI50: 1.76 µM
SK-MEL-2; [1]
  CC50: > 100 µM
SK-MEL-2
  TGI: 1.10E−05 Molar
SK-MEL-2; log10 conc −4.0 Molar
  Percent Growth: −31%
SK-MEL-2; log10 conc −5.0 Molar
  Percent Growth: 1%
SK-MEL-2; log10 conc −6.0 Molar
  Percent Growth: 66%
SK-MEL-2; log10 conc −7.0 Molar
  Percent Growth: 95%
SK-MEL-2; log10 conc −8.0 Molar
  Percent Growth: 107%
